# Species on record: Rattus norvegicus
# Assay: DrugMatrix - Regimen: Daily Repeat
# Format: toxicity, organism-based, Sprague-Dawley
# Design: regimen Daily Repeat, gender Male, age 6-8 weeks
# Conditions: in vivo, ip, route intraperitoneal, vehicle 100 % SALINE; for ALANINE AMINOTRANSFERASE / ALBUMIN / ALKALINE PHOSPHATASE / ASPARTATE AMINOTRANSFERASE / BLOOD UREA NITROGEN / CARBON DIOXIDE / CHLORIDE / CHOLESTEROL / CREATINE PHOSPHOKINASE / CREATININE / GLUCOSE / LACTATE DEHYDROGENASE / LIPASE / PHOSPHORUS / POTASSIUM / SODIUM / TOTAL BILIRUBIN / TOTAL PROTEIN / URIC ACID: tissue Plasma; for ABSOLUTE BASOPHIL / ABSOLUTE EOSINOPHIL / ABSOLUTE LYMPHOCYTE / ABSOLUTE MONOCYTE / ABSOLUTE SEGMENTED NEUTROPHIL / BASOPHIL / EOSINOPHIL / ERYTHROCYTE COUNT / HEMATOCRIT / HEMOGLOBIN / LEUKOCYTE COUNT / LYMPHOCYTE / MEAN CORPUSCULAR HEMOGLOBIN / MEAN CORPUSCULAR HEMOGLOBIN CONCENTRATION / MEAN CORPUSCULAR VOLUME / MONOCYTE / NEUTROPHIL / NUCLEATED RED BLOOD CELLS / PLATELET COUNT: tissue Blood
# [1] = 16 mg/kg, […], dose level Low, time 7 day
# [2] = 25 mg/kg, 72 h, dose level M1, time 3 day
# [3] = 25 mg/kg, […], dose level M1, time 7 day
# [4] = 32 mg/kg, 72 h, dose level High, time 3 day
# [5] = 32 mg/kg, 120 h, dose level High, time 5 day
smiles,measurement,setting,value
C=CCO [ALLYL ALCOHOL],ALANINE AMINOTRANSFERASE,[1],80.83 u/L
same,ALBUMIN,[1],4.13 G/DL
same,ALKALINE PHOSPHATASE,[1],183 u/L
same,ASPARTATE AMINOTRANSFERASE,[1],104.33 u/L
same,BLOOD UREA NITROGEN,[1],16.67 mg/dL
same,CARBON DIOXIDE,[1],32.17 mmol/L
same,CHLORIDE,[1],100.67 MEQ/L
same,CHOLESTEROL,[1],73.5 mg/dL
same,CREATINE PHOSPHOKINASE,[1],256 u/L
same,CREATININE,[1],0.27 mg/dL
same,GLUCOSE,[1],141 mg/dL
same,LACTATE DEHYDROGENASE,[1],96.17 u/L
same,LIPASE,[1],10.5 u/L
same,PHOSPHORUS,[1],10.28 mg/dL
same,POTASSIUM,[1],5.47 MEQ/L
same,SODIUM,[1],142.65 MEQ/L
same,TOTAL BILIRUBIN,[1],0.12 mg/dL
same,TOTAL PROTEIN,[1],6.32 G/DL
same,URIC ACID,[1],0.65 mg/dL
same,ABSOLUTE BASOPHIL,[2],0 CELLS/uL
same,ABSOLUTE EOSINOPHIL,[2],43.33 CELLS/uL
same,ABSOLUTE LYMPHOCYTE,[2],12346.17 CELLS/uL
same,ABSOLUTE MONOCYTE,[2],299.67 CELLS/uL
same,ABSOLUTE SEGMENTED NEUTROPHIL,[2],1244.17 CELLS/uL
same,BASOPHIL,[2],0%
same,EOSINOPHIL,[2],0.33%
same,ERYTHROCYTE COUNT,[2],5.36 x10E6/uL
same,HEMATOCRIT,[2],34.17%
same,HEMOGLOBIN,[2],13.52 G/DL
same,LEUKOCYTE COUNT,[2],13.93 x10E3/uL
same,LYMPHOCYTE,[2],88.17%
same,MEAN CORPUSCULAR HEMOGLOBIN,[2],25.25 pg
same,MEAN CORPUSCULAR HEMOGLOBIN CONCENTRATION,[2],39.62 G/DL
same,MEAN CORPUSCULAR VOLUME,[2],63.8 fL
same,MONOCYTE,[2],2.17%
same,NEUTROPHIL,[2],9.33%
same,NUCLEATED RED BLOOD CELLS,[2],0 /100WBC
same,PLATELET COUNT,[2],1124.67 x10E3/uL
same,ALANINE AMINOTRANSFERASE,[2],46.67 u/L
same,ALBUMIN,[2],4 G/DL
same,ALKALINE PHOSPHATASE,[2],230.83 u/L
same,ASPARTATE AMINOTRANSFERASE,[2],67.33 u/L
same,BLOOD UREA NITROGEN,[2],11.17 mg/dL
same,CARBON DIOXIDE,[2],32.67 mmol/L
same,CHLORIDE,[2],102 MEQ/L
same,CHOLESTEROL,[2],77.17 mg/dL
same,CREATINE PHOSPHOKINASE,[2],229.5 u/L
same,CREATININE,[2],0.39 mg/dL
same,GLUCOSE,[2],137 mg/dL
same,LACTATE DEHYDROGENASE,[2],101.67 u/L
same,LIPASE,[2],8.33 u/L
same,PHOSPHORUS,[2],9.72 mg/dL
same,POTASSIUM,[2],5.84 MEQ/L
same,SODIUM,[2],141.88 MEQ/L
same,TOTAL BILIRUBIN,[2],0.17 mg/dL
same,TOTAL PROTEIN,[2],6.07 G/DL
same,URIC ACID,[2],1.12 mg/dL
same,ABSOLUTE BASOPHIL,[3],0 CELLS/uL
same,ABSOLUTE EOSINOPHIL,[3],65.67 CELLS/uL
same,ABSOLUTE LYMPHOCYTE,[3],7275.5 CELLS/uL
same,ABSOLUTE MONOCYTE,[3],150.67 CELLS/uL
same,ABSOLUTE SEGMENTED NEUTROPHIL,[3],874.83 CELLS/uL
same,BASOPHIL,[3],0%
same,EOSINOPHIL,[3],0.67%
same,ERYTHROCYTE COUNT,[3],5.49 x10E6/uL
same,HEMATOCRIT,[3],34.07%
same,HEMOGLOBIN,[3],13.33 G/DL
same,LEUKOCYTE COUNT,[3],8.37 x10E3/uL
same,LYMPHOCYTE,[3],87.67%
same,MEAN CORPUSCULAR HEMOGLOBIN,[3],24.3 pg
same,MEAN CORPUSCULAR HEMOGLOBIN CONCENTRATION,[3],39.13 G/DL
same,MEAN CORPUSCULAR VOLUME,[3],62.12 fL
same,MONOCYTE,[3],1.83%
same,NEUTROPHIL,[3],9.83%
same,NUCLEATED RED BLOOD CELLS,[3],0 /100WBC
same,PLATELET COUNT,[3],1389.83 x10E3/uL
same,ALANINE AMINOTRANSFERASE,[3],80.83 u/L
same,ALBUMIN,[3],4.2 G/DL
same,ALKALINE PHOSPHATASE,[3],232.83 u/L
same,ASPARTATE AMINOTRANSFERASE,[3],88.17 u/L
same,BLOOD UREA NITROGEN,[3],15 mg/dL
same,CARBON DIOXIDE,[3],31.33 mmol/L
same,CHLORIDE,[3],101 MEQ/L
same,CHOLESTEROL,[3],66.5 mg/dL
same,CREATINE PHOSPHOKINASE,[3],274.5 u/L
same,CREATININE,[3],0.28 mg/dL
same,GLUCOSE,[3],136.67 mg/dL
same,LACTATE DEHYDROGENASE,[3],97 u/L
same,LIPASE,[3],10.5 u/L
same,PHOSPHORUS,[3],9.85 mg/dL
same,POTASSIUM,[3],5.63 MEQ/L
same,SODIUM,[3],144.45 MEQ/L
same,TOTAL BILIRUBIN,[3],0.1 mg/dL
same,TOTAL PROTEIN,[3],6.35 G/DL
same,URIC ACID,[3],0.85 mg/dL
same,ABSOLUTE BASOPHIL,[4],0 CELLS/uL
same,ABSOLUTE EOSINOPHIL,[4],16 CELLS/uL
same,ABSOLUTE LYMPHOCYTE,[4],7549.2 CELLS/uL
same,ABSOLUTE MONOCYTE,[4],147.6 CELLS/uL
same,ABSOLUTE SEGMENTED NEUTROPHIL,[4],1267.2 CELLS/uL
same,BASOPHIL,[4],0%
same,EOSINOPHIL,[4],0.2%
same,ERYTHROCYTE COUNT,[4],5.74 x10E6/uL
same,HEMATOCRIT,[4],34.96%
same,HEMOGLOBIN,[4],13.16 G/DL
same,LEUKOCYTE COUNT,[4],8.98 x10E3/uL
same,LYMPHOCYTE,[4],84%
same,MEAN CORPUSCULAR HEMOGLOBIN,[4],22.98 pg
same,MEAN CORPUSCULAR HEMOGLOBIN CONCENTRATION,[4],37.66 G/DL
same,MEAN CORPUSCULAR VOLUME,[4],61.06 fL
same,MONOCYTE,[4],1.6%
same,NEUTROPHIL,[4],14.2%
same,NUCLEATED RED BLOOD CELLS,[4],0 /100WBC
same,PLATELET COUNT,[4],945 x10E3/uL
same,ALANINE AMINOTRANSFERASE,[4],456.4 u/L
same,ALBUMIN,[4],3.86 G/DL
same,ALKALINE PHOSPHATASE,[4],444.6 u/L
same,ASPARTATE AMINOTRANSFERASE,[4],939.2 u/L
same,BLOOD UREA NITROGEN,[4],15.6 mg/dL
same,CARBON DIOXIDE,[4],28.24 mmol/L
same,CHLORIDE,[4],98.33 MEQ/L
same,CHOLESTEROL,[4],70.6 mg/dL
same,CREATINE PHOSPHOKINASE,[4],527.8 u/L
same,CREATININE,[4],0.2 mg/dL
same,GLUCOSE,[4],138.2 mg/dL
same,LACTATE DEHYDROGENASE,[4],186.6 u/L
same,LIPASE,[4],9.25 u/L
same,PHOSPHORUS,[4],9.34 mg/dL
same,POTASSIUM,[4],5.07 MEQ/L
same,SODIUM,[4],143.03 MEQ/L
same,TOTAL BILIRUBIN,[4],0.2 mg/dL
same,TOTAL PROTEIN,[4],5.94 G/DL
same,URIC ACID,[4],0.58 mg/dL
same,ABSOLUTE BASOPHIL,[5],0 CELLS/uL
same,ABSOLUTE EOSINOPHIL,[5],0 CELLS/uL
same,ABSOLUTE LYMPHOCYTE,[5],8954.4 CELLS/uL
same,ABSOLUTE MONOCYTE,[5],236 CELLS/uL
same,ABSOLUTE SEGMENTED NEUTROPHIL,[5],1769.6 CELLS/uL
same,BASOPHIL,[5],0%
same,EOSINOPHIL,[5],0%
same,ERYTHROCYTE COUNT,[5],5.51 x10E6/uL
same,HEMATOCRIT,[5],33.82%
same,HEMOGLOBIN,[5],12.86 G/DL
same,LEUKOCYTE COUNT,[5],10.96 x10E3/uL
same,LYMPHOCYTE,[5],81.4%
same,MEAN CORPUSCULAR HEMOGLOBIN,[5],23.36 pg
same,MEAN CORPUSCULAR HEMOGLOBIN CONCENTRATION,[5],38.08 G/DL
same,MEAN CORPUSCULAR VOLUME,[5],61.42 fL
same,MONOCYTE,[5],2.2%
same,NEUTROPHIL,[5],16.4%
same,NUCLEATED RED BLOOD CELLS,[5],0 /100WBC
same,PLATELET COUNT,[5],1673 x10E3/uL
same,ALANINE AMINOTRANSFERASE,[5],57.8 u/L
same,ALBUMIN,[5],4.32 G/DL
same,ALKALINE PHOSPHATASE,[5],372.6 u/L
same,ASPARTATE AMINOTRANSFERASE,[5],80.8 u/L
same,BLOOD UREA NITROGEN,[5],12.6 mg/dL
same,CARBON DIOXIDE,[5],32.4 mmol/L
same,CHLORIDE,[5],102 MEQ/L
same,CHOLESTEROL,[5],79.8 mg/dL
same,CREATINE PHOSPHOKINASE,[5],211.6 u/L
same,CREATININE,[5],0.16 mg/dL
same,GLUCOSE,[5],162.6 mg/dL
same,LACTATE DEHYDROGENASE,[5],154.6 u/L
same,LIPASE,[5],9.6 u/L
same,PHOSPHORUS,[5],9.92 mg/dL
same,POTASSIUM,[5],5.73 MEQ/L
same,SODIUM,[5],143.6 MEQ/L
same,TOTAL BILIRUBIN,[5],0.22 mg/dL
same,TOTAL PROTEIN,[5],6.56 G/DL
same,URIC ACID,[5],0.94 mg/dL

# From ChEMBL document CHEMBL3885881, “DrugMatrix”
